# Patent publication US12071438B2, “Crystal forms of an ALK2 inhibitor” (Keros Therapeutics, Inc., priority 2018, dated 2024)
# Columns and labels:
# Assay type in all cases: physicochemical
# [1] = 97% RH stress in polymorph screening study; conditions: RT, no solvent
# [2] = Dynamic vapor sorption/desorption (DVS); conditions: for hygroscopicity by DVS / DVS weight gain and loss: 25° C.; for hygroscopicity by DVS: 0-95% RH; for DVS weight gain and loss: adsorption 0-95% RH, desorption to 0% RH
# Procedure: (§1) Dynamic vapor sortion/desportion (DVS) analysis was conducted with a Hiden Isochema, IGAsorp, s/n IGSA 126. Samples were loaded in to a tared basket on the instrument and dried for 1 hour at 40° C. Samples were then analyzed at 25° C. with the following percent relative humidity (% RH) steps: Adsorption (% RH): 0.0, 10.0, 20.0, 30.0, 40.0, 50.0, 60.0, 70.0, 80.0, 90.0, 95.0, Desorption (% RH): 90.0, 80.0, 70.0, 60.0, 50.0, 40.0, 30.0, 20.0, 10.0, 0.0.
# XRPD analysis after DVS = conditions: post-DVS
# Procedure: X-ray powder diffraction (XRPD) patterns were collected on a Bruker D8 diffractometer using Cu Kα radiation (40 kV, 40 mA), θ-2θ goniometer and divergence of 0.6 mm and receiving slits, and a Lynxeye detector. The instrument is performance checked using a certified Corundum standard (NIST 1976). The software used for data collection was Diffrac Plus XRD Commander v2.6.1 and the data were analyzed and presented using Materials Data Jade Software v 9.7.0. Samples were prepared by transferring 2 to 50 mg of sample to a zero background holder coated with a thin layer of petroleum jelly and leveled with a glass plate and analyzed at ambient temperature. The sample was rotated in its own plane during analysis.
# as §1
# [3] = Form A and Form B competitive slurries (thermodynamically stable polymorph)
# Procedure: To determine the thermodynamically stable polymorph between anhydrous Forms A and B, competitive slurries were conducted in three different solvent systems: ethanol, tetrahydrofuran, and 2-butanone (MEK)/water (95:5). Ethanol and tetrahydrofuran were chosen based on the solubility of the material. MEK was chosen as a potential process solvent and water was added to boost the solubility.
# Thus, additional competitive slurries were conducted in three additional solvent systems: ethanol/heptane (1:5), ethyl acetate/water (97:3), and isopropanol/water (99:1). The ethanol/heptane system was evaluated at −15° C., 5° C., ambient (RT), and 40° C. The water containing systems were only evaluated at ambient temperature. The slurries were conducted for 7 days instead of 5 days, as done in the above slurries. Form D was also included in the competitive slurries containing water.
SMILES,hygroscopicity by DVS [2],DVS weight gain and loss [2] [%],XRPD after DVS analysis (form change) (XRPD analysis after DVS),further results
COc1cc2c(-c3cnn4cc(N5CCC(N6CCN(C)CC6)CC5)cnc34)ccnc2cc1F,–,–,–,"XRPD Result [1]: Form C,"
COc1cc2c(-c3cnn4cc(N5CCC(N6CCN(C)CC6)CC5)cnc34)ccnc2cc1F [Form A],hygroscopic,38,"becomes highly disordered and converts to the hydrate, Form C","hygroscopicity by DVS below 80% RH ([2]; below 80% RH): non-hygroscopic; polymorph stability over time (competitive slurries) ([3]; 40° C. down to −15° C., 7 days versus 5 days): most stable polymorph; thermodynamic stability at low water activity ([3]; low water activity (99:1 IPA/water)): most thermodynamically stable"
COc1cc2c(-c3cnn4cc(N5CCC(N6CCN(C)CC6)CC5)cnc34)ccnc2cc1F [Form B],slightly hygroscopic,12,consistent with Form B,moisture gain onset in DVS ([2]; low relative humidities): begins immediately even at low relative humidities
COc1cc2c(-c3cnn4cc(N5CCC(N6CCN(C)CC6)CC5)cnc34)ccnc2cc1F [Form C],–,–,–,thermodynamic stability at high water activity ([3]; high water activity (97:3 EtOAc/water)): more favored
"COc1cc2c(-c3cnn4cc(N5CCC(N6CCN(C)CC6)CC5)cnc34)ccnc2cc1F [compound of Formula I free base, 7-fluoro-6-methoxy-4-(6-(4-(4-methylpiperazin-1-yl)piperidin-1-yl)pyrazolo[1,5-a]pyrimidin-3-yl)quinoline]",non-hygroscopic,0.5,No change,–
